Test results: EPA's ToxRefDB 2

Columns and labels:
[1] = system: mouse; details: Subchronic oral toxicity in rodents, cd1, Feed, dose end: 90 day, group: systemic
[2] = system: rat; details: Combined chronic toxicity/carcinogenicity; sprague dawley; Oral; Feed; dose end: 104 week; group: systemic; systemic / pathology microscopic / liver / hypertrophy + systemic / pathology microscopic / stomach / hyperkeratosis + systemic / pathology …
[3] = system: rat; details: Chronic toxicity, fischer, Oral, Feed, dose end: 104 week, group: systemic
[4] = system: rat; details: Chronic toxicity, wistar, Oral, Gavage/Intubation, dose end: 6 month, group: systemic
[5] = system: rat; details: Subchronic oral toxicity in rodents; wistar; Injection; Intravenous; dose end: 3 month; group: systemic; systemic / clinical chemistry / urea nitrogen / urea + systemic / hematology / erythrocyte (rbc) count differential / erythrocyte (rbc) + …
[6] = system: rat; details: Fertility (Segment I), wistar, Oral, Gavage/Intubation, dose end: 7 GD
[7] = systemic / pathology gross / urinary bladder / lesion(s) (nos)
[8] = systemic / pathology microscopic / kidney / hyperplasia + systemic / pathology microscopic / kidney / karyomegaly + systemic / in life …
[9] = systemic / pathology microscopic / kidney / karyomegaly
[10] = systemic / hematology / reticulocyte / reticulocyte + systemic / in life observation / clinical signs / teeth whitening + systemic / in life…
[11] = systemic / in life observation / clinical signs / tooth-broken
[12] = group: maternal, reproductive / reproductive performance / estrous cycle / corpora lutea + reproductive / reproductive performance / implantations / …
[13] = group: parental, systemic / in life observation / body weight / body weight + systemic / in life observation / clinical signs / ataxia + systemic / in life …

N#Cc1c(Cl)c(Cl)c(Cl)c(C#N)c1Cl [Chlorothalonil]
LEL [1, 7]: 1.12 mg/kg/day
NEL [1, 7]: < 1.12 mg/kg/day
NOAEL ([1]; systemic / pathology microscopic / stomach / hyperkeratosis + systemic / pathology microscopic / stomach / hyperplasia + systemic / clinical…): 2.25 mg/kg/day
LOAEL ([1]; systemic / pathology microscopic / stomach / hyperkeratosis + systemic / pathology microscopic / stomach / hyperplasia + systemic / …): 7.5 mg/kg/day
LEL [2]: 0.7 mg/kg/day
LOAEL [2]: 0.9 mg/kg/day
NEL [2]: < 0.7 mg/kg/day
NOAEL [2]: < 0.9 mg/kg/day
LOAEL [3, 8]: 175 mg/kg/day
NOAEL [3, 8]: 15 mg/kg/day
LEL [3, 9]: 1.5 mg/kg/day
NEL [3, 9]: < 1.5 mg/kg/day

CC(C)c1ccc(C(=O)N=C(N)N)cc1S(C)(=O)=O.CS(=O)(=O)O [Cariporide mesylate]
LOAEL [4, 10]: 25 mg/kg/day
NOAEL [4, 10]: 5 mg/kg/day
LEL [4, 11]: 5 mg/kg/day
NEL [4, 11]: < 5 mg/kg/day
LEL [5]: 125 mg/kg/day
LOAEL [5]: 125 mg/kg/day
NEL [5]: 25 mg/kg/day
NOAEL [5]: 25 mg/kg/day
LEL [6, 12]: 400 mg/kg/day
LOAEL [6, 12]: > 400 mg/kg/day
NEL [6, 12]: 100 mg/kg/day
NOAEL [6, 12]: ≥ 400 mg/kg/day
LOAEL [6, 13]: > 400 mg/kg/day
NEL [6, 13]: 25 mg/kg/day
NOAEL [6, 13]: ≥ 400 mg/kg/day
LEL ([6]; group: parental, systemic / in life observation / clinical signs / salivation): 100 mg/kg/day
